Assay results: ChEMBL document CHEMBL4411296, “Design and development of Isatin-triazole hydrazones as potential inhibitors of microtubule affinity-regulating kinase 4 for the therapeutic management of cell proliferation and metastasis” (Eur J Med Chem, 2019)

How the values were obtained:
Format in all cases: functional
CCRF-CEM = assay: Growth inhibition of human CCRF-CEM cells assessed as cell growth at 10 uM after 48 hrs by sulforhodamine B assay relative to control; conditions: read-out: Activity
MOLT-4 = assay: Growth inhibition of human MOLT4 cells assessed as cell growth at 10 uM after 48 hrs by sulforhodamine B assay relative to control; conditions: MOLT-4, 48 h, read-out: Activity
EKVX = assay: Growth inhibition of human EKVX cells assessed as cell growth at 10 uM after 48 hrs by sulforhodamine B assay relative to control; conditions: read-out: Activity
HOP-62 = assay: Growth inhibition of human HOP62 cells assessed as cell growth at 10 uM after 48 hrs by sulforhodamine B assay relative to control; conditions: HOP-62, 48 h, read-out: Activity
HOP-92 = assay: Growth inhibition of human HOP92 cells assessed as cell growth at 10 uM after 48 hrs by sulforhodamine B assay relative to control; conditions: HOP-92, 48 h, read-out: Activity
NCI-H226 = assay: Growth inhibition of human NCI-H226 cells assessed as cell growth at 10 uM after 48 hrs by sulforhodamine B assay relative to control; conditions: NCI-H226, 48 h, read-out: Activity
NCI-H23 = assay: Growth inhibition of human NCI-H23 cells assessed as cell growth at 10 uM after 48 hrs by sulforhodamine B assay relative to control; conditions: NCI-H23, 48 h, read-out: Activity
NCI-H322M = assay: Growth inhibition of human NCI-H322M cells assessed as cell growth at 10 uM after 48 hrs by sulforhodamine B assay relative to control; conditions: read-out: Activity
NCI-H522 = assay: Growth inhibition of human NCI-H522 cells assessed as cell growth at 10 uM after 48 hrs by sulforhodamine B assay relative to control; conditions: NCI-H522, 48 h, read-out: Activity
COLO 205 = assay: Growth inhibition of human COLO205 cells assessed as cell growth at 10 uM after 48 hrs by sulforhodamine B assay relative to control; conditions: COLO 205, 48 h, read-out: Activity
HCC 2998 = assay: Growth inhibition of human HCC2998 cells assessed as cell growth at 10 uM after 48 hrs by sulforhodamine B assay relative to control; conditions: HCC 2998, 48 h, read-out: Activity
HT-29 = assay: Growth inhibition of human HT-29 cells assessed as cell growth at 10 uM after 48 hrs by sulforhodamine B assay relative to control; conditions: HT-29, 48 h, read-out: Activity
SNB-19 = assay: Growth inhibition of human SNB19 cells assessed as cell growth at 10 uM after 48 hrs by sulforhodamine B assay relative to control; conditions: SNB-19, 48 h, read-out: Activity
SNB-75 = assay: Growth inhibition of human SNB75 cells assessed as cell growth at 10 uM after 48 hrs by sulforhodamine B assay relative to control; conditions: SNB-75, 48 h, read-out: Activity
U-251 = assay: Growth inhibition of human U251 cells assessed as cell growth at 10 uM after 48 hrs by sulforhodamine B assay relative to control; conditions: U-251, 48 h, read-out: Activity
M14 = assay: Growth inhibition of human M14 cells assessed as cell growth at 10 uM after 48 hrs by sulforhodamine B assay relative to control; conditions: M14, 48 h, read-out: Activity
SK-MEL-2 = assay: Growth inhibition of human SK-MEL-2 cells assessed as cell growth at 10 uM after 48 hrs by sulforhodamine B assay relative to control; conditions: SK-MEL-2, 48 h, read-out: Activity
SK-MEL-28 = assay: Growth inhibition of human SK-MEL-28 cells assessed as cell growth at 10 uM after 48 hrs by sulforhodamine B assay relative to control; conditions: SK-MEL-28, 48 h, read-out: Activity
IGROV-1 = assay: Growth inhibition of human IGROV1 cells assessed as cell growth at 10 uM after 48 hrs by sulforhodamine B assay relative to control; conditions: IGROV-1, 48 h, read-out: Activity
NCI/ADR-RES = assay: Growth inhibition of human NCI/ADR-RES cells assessed as cell growth at 10 uM after 48 hrs by sulforhodamine B assay relative to control; conditions: read-out: Activity
SK-OV-3 = assay: Growth inhibition of human SKOV3 cells assessed as cell growth at 10 uM after 48 hrs by sulforhodamine B assay relative to control; conditions: SK-OV-3, 48 h, read-out: Activity
786-0 = assay: Growth inhibition of human 786-0 cells assessed as cell growth at 10 uM after 48 hrs by sulforhodamine B assay relative to control; conditions: 786-0, 48 h, read-out: Activity
ACHN = assay: Growth inhibition of human ACHN cells assessed as cell growth at 10 uM after 48 hrs by sulforhodamine B assay relative to control; conditions: read-out: Activity
RXF 393 = assay: Growth inhibition of human RXF393 cells assessed as cell growth at 10 uM after 48 hrs by sulforhodamine B assay relative to control; conditions: RXF 393, 48 h, read-out: Activity
TK-10 = assay: Growth inhibition of human TK10 cells assessed as cell growth at 10 uM after 48 hrs by sulforhodamine B assay relative to control; conditions: TK-10, 48 h, read-out: Activity
UO-31 = assay: Growth inhibition of human UO31 cells assessed as cell growth at 10 uM after 48 hrs by sulforhodamine B assay relative to control; conditions: UO-31, 48 h, read-out: Activity
PC-3 = assay: Growth inhibition of human PC3 cells assessed as cell growth at 10 uM after 48 hrs by sulforhodamine B assay relative to control; conditions: PC-3, 48 h, read-out: Activity
DU-145 = assay: Growth inhibition of human DU145 cells assessed as cell growth at 10 uM after 48 hrs by sulforhodamine B assay relative to control; conditions: DU-145, 48 h, read-out: Activity
MCF7 = assay: Growth inhibition of human MCF7 cells assessed as cell growth at 10 uM after 48 hrs by sulforhodamine B assay relative to control; conditions: MCF7, 48 h, read-out: Activity
MDA-MB-231 = assay: Growth inhibition of human MDA-MB-231 cells assessed as cell growth at 10 uM after 48 hrs by sulforhodamine B assay relative to control; conditions: MDA-MB-231, 48 h, read-out: Activity
Hs-578T = assay: Growth inhibition of human Hs 578T cells assessed as cell growth at 10 uM after 48 hrs by sulforhodamine B assay relative to control; conditions: read-out: Activity
BT-549 = assay: Growth inhibition of human BT549 cells assessed as cell growth at 10 uM after 48 hrs by sulforhodamine B assay relative to control; conditions: BT-549, 48 h, read-out: Activity
T47D = assay: Growth inhibition of human T47D cells assessed as cell growth at 10 uM after 48 hrs by sulforhodamine B assay relative to control; conditions: read-out: Activity
MDA-MB-468 = assay: Growth inhibition of human MDA-MB-468 cells assessed as cell growth at 10 uM after 48 hrs by sulforhodamine B assay relative to control; conditions: MDA-MB-468, 48 h, read-out: Activity

In the case of COc1ccc(Cn2cc(C(=O)N/N=C3/C(=O)Nc4ccccc43)nn2)cc1, the growth at 10 µM (CCRF-CEM) is reported as 104%, the growth at 10 µM (MOLT-4) is reported as 93.2% and the growth at 10 µM (EKVX) is reported as 104%. For the same compound, the growth at 10 µM (HOP-62) was 104%, the growth at 10 µM (HOP-92) was 112% and the growth at 10 µM (NCI-H226) was 86.8%. For the same compound, the growth at 10 µM (NCI-H23) was 103%, the growth at 10 µM (NCI-H322M) was 97.9% and the growth at 10 µM (NCI-H522) was 87.8%. The growth at 10 µM (COLO 205) was 108%, the growth at 10 µM (HCC 2998) was 110% and the growth at 10 µM (HT-29) was 99.2%. The growth at 10 µM (SNB-19) was 98%, the growth at 10 µM (SNB-75) was 95.3% and the growth at 10 µM (U-251) was 92.2%. For the same compound, the growth at 10 µM (M14) was 103%, the growth at 10 µM (SK-MEL-2) was 94.8% and the growth at 10 µM (SK-MEL-28) was 104%. For the same compound, the growth at 10 µM (IGROV-1) was 97.5%, the growth at 10 µM (NCI/ADR-RES) was 97.2% and the growth at 10 µM (SK-OV-3) was 113%. For the same compound, the growth at 10 µM (786-0) was 106%, the growth at 10 µM (ACHN) was 107% and the growth at 10 µM (RXF 393) was 101%. For the same compound, the growth at 10 µM (TK-10) was 107%, the growth at 10 µM (UO-31) was 84.8% and the growth at 10 µM (PC-3) was 103%. For the same compound, the growth at 10 µM (DU-145) was 104%, the growth at 10 µM (MCF7) was 96.5% and the growth at 10 µM (MDA-MB-231) was 101%. The growth at 10 µM (Hs-578T) was 109%, the growth at 10 µM (BT-549) was 115% and the growth at 10 µM (T47D) was 113%. It also gave a growth at 10 µM (MDA-MB-468) of 99%.
